In patent US20140249135A1, “PIM KINASE INHIBITORS AND METHODS OF THEIR USE” (NOVARTIS AG, priority 2007, published 2014):
Like-named read-outs stand apart in the source and are kept apart here.

What was measured:
Assay type in all cases: biochemical
Pim1 kinase = Pim1 kinase (Homo sapiens, UniProt P11309); assay: Pim1 ATP depletion assay; settings: Pim1 ATP depletion assay;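 further: Luciferase-luciferin luminescence readout of residual ATP after PIM1 transfers phosphate to a peptide substrate, 40 µM ATP added, reaction run to roughly half ATP consumption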
Pim1 kinase, sequence (P11309 whole entry): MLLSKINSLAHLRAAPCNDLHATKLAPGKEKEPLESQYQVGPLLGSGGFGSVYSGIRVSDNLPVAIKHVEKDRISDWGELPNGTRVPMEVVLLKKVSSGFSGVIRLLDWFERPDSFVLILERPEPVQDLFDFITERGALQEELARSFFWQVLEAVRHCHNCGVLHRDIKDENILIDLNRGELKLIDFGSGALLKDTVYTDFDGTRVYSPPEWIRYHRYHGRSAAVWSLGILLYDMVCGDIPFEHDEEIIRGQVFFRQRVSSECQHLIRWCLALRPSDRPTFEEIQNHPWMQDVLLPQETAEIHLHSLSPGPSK

Pim2 kinase = Pim2 kinase (Homo sapiens, UniProt Q9P1W9); assay: Pim2 ATP depletion assay;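 further: Luciferase-based luminescent readout of ATP remaining after PIM2 phosphorylates a BAD peptide, final 5 nM enzyme, 4 µM ATP, 10 µM peptide, 2.5% DMSO, run to roughly half ATP consumption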
Pim2 kinase, sequence (Q9P1W9 whole entry): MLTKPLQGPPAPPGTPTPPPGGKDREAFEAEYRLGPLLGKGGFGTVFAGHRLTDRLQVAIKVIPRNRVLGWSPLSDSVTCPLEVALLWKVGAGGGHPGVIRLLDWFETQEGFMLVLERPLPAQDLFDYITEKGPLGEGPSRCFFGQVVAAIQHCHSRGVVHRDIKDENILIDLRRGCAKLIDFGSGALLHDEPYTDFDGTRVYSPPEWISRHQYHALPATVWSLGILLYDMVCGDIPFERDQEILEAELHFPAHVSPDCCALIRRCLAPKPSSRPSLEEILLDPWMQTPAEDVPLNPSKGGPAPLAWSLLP

Pim3 kinase = Pim3 kinase (Homo sapiens, UniProt Q86V86); assay: Pim3 ATP depletion assay

Row | Structure (SMILES) | IC50 (Pim1 kinase; read-out: PIM1 IC50) [µM] | IC50 (Pim2 kinase; read-out: PIM2 IC50) [µM] | IC50 (Pim3 kinase; read-out: PIM3 IC50) [µM] | IC50 (Pim1 kinase; read-out: IC50 (μM) PIM1) [µM] | IC50 (Pim2 kinase; read-out: IC50 (μM) PIM2) [µM] | IC50 (Pim3 kinase; read-out: IC50 (μM) PIM3) [µM]
1 | Nc1cc(-c2ccncc2NC(=O)c2nc(-c3c(F)cccc3F)ccc2N)ccn1 [Example 617, 3-amino-N-(2′-amino-4,4′-bipyridin-3-yl)-6-(2,6-difluorophenyl)pyridine-2-carboxamide] | < 1 | < 1 | < 1 | – | – | –
2 | Nc1nccc(-c2ccncc2NC(=O)c2nc(-c3c(F)cccc3F)ccc2N)n1 [Example 628, 3-amino-N-[4-(2-aminopyrimidin-4-yl)pyridin-3-yl]-6-(2,6-difluorophenyl)pyridine-2-carboxamide] | < 1 | < 1 | < 1 | – | – | –
3 | Nc1ccc(-c2c(F)cccc2F)nc1C(=O)Nc1cnccc1N1CC[C@H]2OC(=O)N[C@H]2C1 [Example 302, 3-Amino-6-(2,6-difluoro-phenyl)-pyridine-2-carboxylic acid [4-(2-oxo-hexahydro-oxazolo[4,5-c]pyridin-5-yl)-pyridin-3-yl]-amide] | – | – | – | < 1 | < 1 | < 1
4 | Nc1cc(-c2ccncc2NC(=O)c2nc(-c3nccs3)ccc2N)nc(C(F)(F)F)n1 [Example 642, 3-amino-N-{4-[6-amino-2-(trifluoromethyl)pyrimidin-4-yl]pyridin-3-yl}-6-(1,3-thiazol-2-yl)pyridine-2-carboxamide] | < 1 | < 1 | < 1 | – | – | –
5 | Cc1cc(-c2ccncc2NC(=O)c2nc(-c3cc(C(=O)N(C)C)ccc3F)ccc2N)nc(N)n1 [Example 564, 3-Amino-6-(5-dimethylcarbamoyl-2-fluoro-phenyl)-pyridine-2-carboxylic acid [4-(2-amino-6-methyl-pyrimidin-4-yl)-pyridin-3-yl]-amide] | < 1 | < 1 | < 1 | – | – | –
6 | Nc1ccc(-c2cc(C(=O)Nc3ccccc3)ccc2F)nc1C(=O)Nc1cnccc1N1CCCC(O)C1 (stereo not drawn) [Example 656, 3-Amino-6-(2-fluoro-5-phenyl-carbamoyl-phenyl)-pyridine-2-carboxylic acid (3-hydroxy-3,4,5,6-tetrahydro-2H-[1,4′]bi-pyridinyl-3′-yl)-amide] | < 1 | < 1 | < 1 | – | – | –
7 | Nc1ncc(Br)nc1C(=O)Nc1cnccc1N1CCCC(N(Cc2ccccc2)Cc2ccccc2)C1 (stereo not drawn) [Example 599, 3-amino-6-bromo-pyrazine-2-carboxylic acid (3-dibenzylamino-3,4,5,6-tetrahydro-2H-[1,4′]bi-pyridinyl-3′-yl)-amide] | < 1 | 1 to 10 | 1 to 10 | – | – | –
8 | COc1cncc(-c2nc(C(=O)Nc3cnccc3N3CCC[C@H](N)C3)c(N)cc2F)n1 [Example 507, 3-Amino-5-fluoro-6-(6-methoxy-pyrazin-2-yl)-pyridine-2-carboxylic acid (3-amino-3,4,5,6-tetrahydro-2H-[1,4′]bipyridinyl-3′-yl)-amide] | – | – | – | < 1 | < 1 | < 1
9 | Nc1ccc(-c2ncccc2F)nc1C(=O)Nc1cnccc1N1CCC(N)C(O)C1 (stereo not drawn) [Example 734, 5-Amino-3′-fluoro-[2,2′]bi-pyridinyl-6-carboxylic acid (4-amino-3-hydroxy-3,4,5,6-tetra-hydro-2H-[1,4′]bipyridinyl-3′-yl)-amide] | < 1 | < 1 | < 1 | – | – | –
10 | Nc1ccc(-c2c(F)cccc2F)nc1C(=O)Nc1cnccc1N1C[C@@H](N)C[C@@H](F)C1 [Example 293, 3-Amino-6-(2,6-difluoro-phenyl)-pyridine-2-carboxylic acid (3-amino-5-fluoro-3,4,5,6-tetrahydro-2H-[1,4′]bipyridinyl-3′-yl)-amide] | – | – | – | < 1 | < 1 | < 1
11 | CN1CCN(c2cc(-c3ccc(N)c(C(=O)Nc4cnccc4-c4cc(N)nc(C(F)(F)F)n4)n3)ccn2)CC1 [Example 573, 5-Amino-2′-(4-methyl-piperazin-1-yl)-[2,4′]bipyridinyl-6-carboxylic acid [4-(6-amino-2-trifluoromethyl-pyrimidin-4-yl)-pyridin-3-yl]-amide] | < 1 | < 1 | < 1 | – | – | –
12 | Nc1cc(-c2ccncc2NC(=O)c2cccc(-c3c(F)cccc3F)n2)nc(C(F)(F)F)n1 [Example 528, 6-(2,6-Difluoro-phenyl)-pyridine-2-carboxylic acid [4-(6-amino-2-trifluoromethyl-pyrimidin-4-yl)-pyridin-3-yl]-amide] | – | – | – | < 1 | < 1 | < 1
13 | Cc1cc(-c2ccncc2NC(=O)c2nc(-c3cc(C(=O)NC(C)C)ccc3F)ccc2N)nc(N)n1 [Example 563, 3-Amino-6-(2-fluoro-5-isopropylcarbamoyl-phenyl)-pyridine-2-carboxylic acid [4-(2-amino-6-methyl-pyrimidin-4-yl)-pyridin-3-yl]-amide] | < 1 | < 1 | < 1 | – | – | –
14 | COc1cncc(-c2ccncc2NC(=O)c2nc(-c3ccccc3F)ccc2N)c1 [Example 609, 3-amino-6-(2-fluorophenyl)-N-(5-methoxy-3,4′-bipyridin-3′-yl)pyridine-2-carboxamide] | < 1 | < 1 | < 1 | – | – | –
15 | Nc1cc(-c2ccncc2NC(=O)c2nc(-c3ccccc3)ccc2N)nc(C(F)(F)F)n1 [Example 531, 3-Amino-6-phenyl-pyridine-2-carboxylic acid [4-(6-amino-2-trifluoromethyl-pyrimidin-4-yl)-pyridin-3-yl]-amide] | – | – | – | < 1 | < 1 | < 1
16 | Cc1nc(N)cc(-c2ccncc2NC(=O)c2nc(-c3ccccc3)ccc2N)n1 [Example 559, 3-Amino-6-phenyl-pyridine-2-carboxylic acid [4-(6-amino-2-methyl-pyrimidin-4-yl)-pyridin-3-yl]-amide] | < 1 | < 1 | < 1 | – | – | –
17 | Nc1ccc(-c2cncnc2)nc1C(=O)Nc1cnccc1N1CCC[C@H](N)C1 [Example 407, 3-amino-6-pyrimidin-5-yl-pyridine-2-carboxylic acid ((S)-3-amino-3,4,5,6-tetrahydro-2H-[1,4′]bipyridinyl-3′-yl)-amide] | – | – | – | < 1 | < 1 | < 1
18 | CC(=O)c1cccc(-c2ccc(N)c(C(=O)Nc3cnccc3N3CCC[C@H](N)C3)n2)n1 [Example 706, 6′-Acetyl-5-amino-[2,2′]bi-pyridinyl-6-carboxylic acid (3-amino-3,4,5,6-tetrahydro-2H-[1,4′]bipyridinyl-3′-yl)-amide] | < 1 | < 1 | < 1 | – | – | –
19 | Nc1ccc(-c2ccccn2)nc1C(=O)Nc1cnccc1N1CCC[C@H](N)C1 [Example 730, 5-Amino-[2,2′]bipyridinyl-6-carboxylic acid (3-amino-3,4,5,6-tetrahydro-2H-[1,4′]bi-pyridinyl-3′-yl)-amide] | < 1 | < 1 | < 1 | – | – | –
20 | Nc1ccc(-c2cncs2)nc1C(=O)Nc1cnccc1N1CCC[C@H](N)C1 [Example 688, 3-Amino-6-thiazol-5-yl-pyridine-2-carboxylic acid (3-amino-3,4,5,6-tetrahydro-2H-[1,4′]bipyridinyl-3′-yl)-amide] | < 1 | < 1 | < 1 | – | – | –
21 | Nc1ccc(-c2c(F)cccc2F)nc1C(=O)Nc1cnccc1N1CC(N)CC(CF)C1 (stereo not drawn) [Example 278, 3-Amino-6-(2,6-difluoro-phenyl)-pyridine-2-carboxylic acid (5-amino-3-fluoromethyl-3,4,5,6-tetrahydro-2H-[1,4′]bi-pyridinyl-3′-yl)-amide] | – | – | – | < 1 | < 1 | < 1
22 | CC(C)Oc1ccc(F)c(-c2ncc(N)c(C(=O)Nc3cnccc3N3CCC[C@H](N)C3)n2)c1 [Example 541, 5-Amino-2-(2-fluoro-5-isopropoxy-phenyl)-pyrimidine-4-carboxylic acid (3-amino-3,4,5,6-tetrahydro-2H-[1,4′]bi-pyridinyl-3′-yl)-amide] | < 1 | < 1 | < 1 | – | – | –
23 | COc1ccccc1-c1ncc(N)c(C(=O)Nc2cnccc2N2CCC[C@H](N)C2)n1 [Example 551, 5-Amino-2-(2-methoxy-phenyl)-pyrimidine-4-carboxylic acid (3-amino-3,4,5,6-tetrahydro-2H-[1,4′]bipyridinyl-3′-yl)-amide] | < 1 | < 1 | < 1 | – | – | –
24 | Nc1cnc(-c2c(F)cccc2F)nc1C(=O)Nc1cnccc1N1CC[C@@H](F)[C@H](N)C1 (stereo in doubt) [Example 256, 5-Amino-2-(2,6-difluoro-phenyl)-pyrimidine-4-carboxylic acid (3-amino-4-fluoro-3,4,5,6-tetrahydro-2H-[1,4′]bipyridinyl-3′-yl)-amide] | – | – | – | < 1 | < 1 | < 1
25 | Cc1cc(F)c(-c2ccc(N)c(C(=O)Nc3cnccc3N3CCC[C@H](N)C3)n2)cc1Cl [Example 478, 3-Amino-6-(5-chloro-2-fluoro-4-methyl-phenyl)-pyridine-2-carboxylic acid (3-amino-3,4,5,6-tetrahydro-2H-[1,4′]bipyridinyl-3′-yl)-amide] | – | – | – | < 1 | < 1 | < 1
26 | N#Cc1cccc(-c2ccc(N)c(C(=O)Nc3cnccc3N3CCC[C@H](N)C3)n2)c1 [Example 461, 3-Amino-6-(3-cyano-phenyl)-pyridine-2-carboxylic acid (3-amino-3,4,5,6-tetrahydro-2H-[1,4′]bipyridinyl-3′-yl)-amide] | – | – | – | < 1 | < 1 | < 1
27 | Nc1cnc(-c2ccc(N)c(C(=O)Nc3cnccc3N3CCC[C@H](N)C3)n2)cn1 [Example 729, 3-Amino-6-(5-amino-pyrazin-2-yl)-pyridine-2-carboxylic acid (3-amino-3,4,5,6-tetrahydro-2H-[1,4′]bipyridinyl-3′-yl)-amide] | < 1 | < 1 | < 1 | – | – | –
